“Also recorded” adds a separate entry of the source. Non-standard residues stand in square brackets, D forms with d. No end group written: not given here.
Legend:
[1] = test system: NS20Y neuroblastoma cells; assay: Neurite outgrowth in NS20Y neuroblastoma cells; type: cell-based
Procedure: NS20Y neuroblastoma cells are grown in Dulbecco's modified Eagle medium (DMEM) containing 10% fetal calf serum (FCS). Cells are removed with trypsin and plated in 30 mm petri dishes onto glass coverslips. […] Cells are cultured for an additional 24 hours, washed with PBS and fixed with Bouin's solution (saturated aqueous picric acid/formalin/acetic acid 15:5:1) for 30 minutes. After fixative is removed with PBS, neurite outgrowth is scored under a phase contrast microscope. […] At least 200 cells are scored in different positions of each dish to determine the percentage of neurite bearing cells with each peptide assayed in duplicate.

Chung model rats = assay: Tactile allodynia (von Frey, 50% paw withdrawal threshold) after bolus intrathecal injection in Chung model rats; type: in vivo, rat
Procedure: Each of the three peptides were obtained in pure form by chemical synthesis, dissolved in sterile PBS and buffered to a neutral pH.
The surgical procedure previously described by Kim and Chung, supra (1992) was performed on male Sprague-Dawley rats weighing 120 to 150 grams to induce an allodynic state. Briefly, the rats were anesthetized with halothane; subsequently, the left L-5 and L-6 spinal nerves were isolated adjacent to the vertebral column and ligated with 6.0 silk suture distal to the dorsal root ganglion.
After a ten to fourteen day post operative recovery period, a spinal catheter was introduced. Five days following the second surgery, intrathecal drug administration was accomplished using a gear driven micro-injection syringe connected to a spinal catheter inserted through the foramen magnum. Prior to testing, the rats were placed in clear plastic wire meshed cages and allowed to acclimate.
To assess the 50% mechanical threshold for paw withdrawal, a von Frey hair was applied to the hind foot avoiding the foot pad. Each of the von Frey hairs, which are calibrated to bend at increasing log forces, were pressed perpendicularly to the foot with sufficient force to cause slight bending for a duration of approximately six to eight seconds. A positive response was noted if the foot was sharply withdrawn. Six data points were collected for each point with the maximum and minimum stimulus noted for each time point. The resulting pattern of the responses was tabulated, and the 50% response threshold was computed. The graph gives the response to the indicated dosage of peptide given as a single intrathecal bolus injection. The X-axis indicates the time after the injection at which point the hypersensitivity to pressure on the foot pad was measured.

Schwann cells = assay: Schwann cell death in culture (inhibition of demyelination); type: cell-based
Text: Reduction of Schwann cell death is correlated with inhibition of demyelination. Schwann cells contain an extensive myelin sheath.

NS20Y cells = assay: Neural cell death (trypan blue) in NS20Y cells; type: cell-based; conditions: 8 ng/ml, 2 days in 0.5% fetal bovine serum
Procedure: Media is removed and 0.2% trypan blue in PBS is added to each well. Dead cells stain blue with the trypan blue dye and are scored as a percentage of the total on an inverted microscope, counting 400 cells in four areas of each well. The average error of duplicates is ±5%.

T[dA]LIDNNATEEILY [SEQ ID NO:2]
neurite outgrowth (percentage of neurite bearing cells) ([1]; 24 hours, compared to a scrambled control peptide): significantly increases neurite outgrowth | concentration at which increased neurite outgrowth is evident ([1]; as little as): 0.5 ng/mL | time of maximum (peak) effect post-injection (Chung model rats; intrathecal bolus): 15 to 30 min | time of return to the pre-injection value (Chung model rats; intrathecal bolus, FIG. 2): ≤ 60 min | tactile allodynia (force threshold) (Chung model rats; intrathecal bolus, doses of FIG. 2): effective in reducing allodynia | activity in alleviating neuropathic pain as assayed using Chung rats (Chung model rats; summary statement): reduces the painful allodynia; also recorded: alleviate neuropathic pain | Schwann cell death (Schwann cells): reduces Schwann cell death in a dose-dependent manner | number of trypan blue-positive (dead) cells (NS20Y cells): substantially reduces the number of trypan blue-positive (dead) cells

Source: patent US6849602B1 (The Regents of the University of California, priority 1996, dated 2005)
